Reference: US9326513B2, “Fungicidal compositions” (Syngenta Participations AG, priority 2011, dated 2016)
Read-outs that look alike come from different tables or passages of the source.

Tests used:
[1] = tested on: Septoria tritici; test: Septoria tritici (leaf blotch), YBG microtiter plate, photometric growth inhibition after 6 days; format: cell-based; details: Zymoseptoria tritici, 144 h
Description: In the following Tables ‘Activity (%)’ means the assessed experimental activity (% disease control in this test when compared to untreated control leaf disks under the same conditions, which show extensive disease development) and “P” is the expected value calculated (expected) activity according to the COLBY formula (see above). The column headed ‘S?’ indicates whether or not synergy was observed, with ‘y’ meaning that synergy was observed.
Septoria tritici (Leaf Blotch):
After placing solutions of the test compounds (containing 0.2% DMSO) into a microtiter plate (96-well format), an equal amount of the nutrient broth (YBG) was added to each of the well. Finally the fungal spore solution was added. The test plates were incubated at 20° C. The inhibition of growth was determined photometrically after 6 days and the activity calculated in relation to untreated control.

[2] = tested on: Septoria tritici; test: Septoria tritici on wheat, preventive treatment; format: in vivo; details: solo, wheat Riband, 1 day preventive, 18 days after application
[3] = tested on: Monographella nivalis (syn. Microdochium nivale, Fusarium nivale); test: Monographella nivalis (snow mould, foot rot of cereals), PDB microtiter plate, visual after 72 hrs; format: cell-based; details: Monographella nivalis, applied alone
[4] = tested on: Botrytis cinerea; test: Botrytis cinerea (gray mould), PDB microtiter plate, visual after 72 hrs; format: cell-based; details: for inhibition at 0.125 ppm: rate 0.125 ppm; for inhibition at 0.25 ppm: rate 0.25 ppm; for inhibition at 0.5 ppm: rate 0.5 ppm
[5] = tested on: Mycosphaerella arachidis (y. Cercospora arachidicola); test: Mycosphaerella arachidis (brown leaf spot of groundnut), PDB microtiter plate, visual after 5-6 days; format: cell-based
[6] = tested on: Septoria tritici; test: Septoria tritici (leaf blotch), PDB microtiter plate, visual after 72 hrs; format: cell-based; details: Zymoseptoria tritici
[7] = tested on: Blumeria graminis f. sp. tritici (Erysiphe graminis f. sp. tritici); test: Blumeria graminis f. sp. tritici / wheat / leaf disc preventative (powdery mildew on wheat); format: in vivo; details: foliar, compared to untreated control leaf disks, read-out: disease control
How it was run: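 Preventative leaf-disc test: compound (200 ppm) was sprayed onto cv. Kanzler wheat segments, which were dusted with conidia from infected plants 1 day after application. After incubation at 20° C and 60% rh, disease control relative to untreated segments was rated 6-8 days after application.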

[8] = tested on: Puccinia recondita f. sp. tritici; test: Puccinia recondita f. sp. tritici / wheat / leaf disc preventative (brown rust); format: in vivo; details: foliar, compared to untreated control leaf disks, read-out: disease control
Description: Puccinia recondita f. sp. tritici/Wheat/Leaf Disc Preventative (Brown Rust) Wheat leaf segments cv. Kanzler were placed on agar in multiwell plates (24-well format) and sprayed with the formulated test compound diluted in water. The leaf disks were inoculated with a spore suspension of the fungus 1 day after application.

[9] = tested on: Puccinia recondita f. sp. tritici; test: Puccinia recondita f. sp. tritici / wheat / leaf disc curative (brown rust); format: in vivo; details: foliar, compared to untreated control leaf disks, read-out: disease control
Procedure: Puccinia recondita f. sp. tritici/Wheat/Leaf Disc Curative (Brown Rust) Wheat leaf segments cv. Kanzler are placed on agar in multiwell plates (24-well format). The leaf segments are inoculated with a spore suspension of the fungus. Plates were stored in darkness at 19° C. and 75% rh. The formulated test compound diluted in water was applied 1 day after inoculation.

[10] = tested on: Pyrenophora teres; test: Pyrenophora teres / barley / leaf disc preventative (net blotch); format: in vivo; details: foliar, compared to untreated control leaf disks, read-out: disease control
Description: Pyrenophora teres/Barley/Leaf Disc Preventative (Net Blotch) Barley leaf segments cv. Hasso were placed on agar in a multiwell plate (24-well format) and sprayed with the formulated test compound diluted in water. The leaf segments were inoculated with a spore suspension of the fungus 2 days after application.

[11] = Botrytis cinerea, single compound
[12] = Mycosphaerella arachidis, single compound, 0.00390625 ppm, read-out: Activity (%)
[13] = Mycosphaerella arachidis, single compound, 0.0078125 ppm, read-out: Activity (%)
[14] = Mycosphaerella arachidis, single compound, 0.015625 ppm, read-out: Activity (%)
[15] = Mycosphaerella arachidis, single compound, 0.03125 ppm, read-out: Activity (%)
[16] = Mycosphaerella arachidis, single compound, 0.0625 ppm, read-out: Activity (%)

SMILES: Fc1ccc([C@]2(Cn3cncn3)O[C@H]2c2ccccc2Cl)cc1 (racemic) [Epoxiconazole]
- inhibition of growth at 0.15625 ppm ([1]; solo, rate 0.15625 ppm, read-out: Activity): 65%
- inhibition of growth at 0.625 ppm ([1]; solo, rate 0.625 ppm): 71%

SMILES: OC(c1cccnc1)c1c(-c2ccc(Cl)cc2F)noc1-c1ccc(F)cc1F (stereo not shown) [(VII), [3-(4-chloro-2-fluoro-phenyl)-5-(2,4-difluoro-phenyl)-isoxazol-4-yl]-pyridin-3-yl-methanol, reference compound]
- Activity ([2]; 3 g a.i./ha): 0%
- Activity ([2]; 9 g a.i./ha): 20%
- Activity ([2]; 27 g a.i./ha): 96%

SMILES: CC1COC(Cn2cncn2)(c2ccc(Oc3ccc(Cl)cc3)cc2Cl)O1 (stereo not shown) [Difenoconazole]
- inhibition of growth at 0.15625 ppm ([1]; read-out: Activity): 48%
- Activity ([2]; 0.33 g a.i./ha): 0%
- Activity ([2]; 1 g a.i./ha): 0%
- Activity ([2]; 3 g a.i./ha): 0%
- Activity ([2]; 9 g a.i./ha): 3%
- Activity ([2]; 27 g a.i./ha): 5%

SMILES: CC(Cc1ccc(C(C)(C)C)cc1)CN1C[C@@H](C)O[C@@H](C)C1 (stereo partly shown) [Fenpropimorph]
- inhibition at 0.0625 ppm ([3]; 0.0625 ppm): 0%
- inhibition at 0.125 ppm ([3]; 0.125 ppm): 0%
- inhibition at 0.25 ppm ([3]; 0.25 ppm): 0%
- inhibition at 0.5 ppm ([3]; 0.5 ppm): 0%
- inhibition at 2 ppm ([3]; 2 ppm): 20%
- inhibition at 0.0078125 ppm ([3]; rate 0.0078125 ppm): 0%
- inhibition at 0.015625 ppm ([3]; rate 0.015625 ppm): 0%
- inhibition at 0.03125 ppm ([3]; rate 0.03125 ppm): 0%
- inhibition at 0.0625 ppm ([3]; rate 0.0625 ppm): 0%
- inhibition at 0.125 ppm ([3]; rate 0.125 ppm): 0%
- inhibition at 0.0625 ppm ([4]; Botrytis cinerea, alone, rate 0.0625 ppm, read-out: Activity (%)): 0%
- inhibition at 0.125 ppm ([4]; Botrytis cinerea, alone): 0%
- inhibition at 0.25 ppm ([4]; Botrytis cinerea, alone): 0%
- inhibition at 0.5 ppm ([4]; Botrytis cinerea, alone): 70%
- inhibition at 0.125 ppm [4, 11]: 0%
- inhibition at 0.25 ppm [4, 11]: 0%
- inhibition at 0.5 ppm [4, 11]: 70%
- inhibition at 0.00390625 ppm [5, 12]: 20%
- inhibition at 0.0078125 ppm [5, 13]: 20%
- inhibition at 0.015625 ppm [5, 14]: 50%
- inhibition at 0.03125 ppm [5, 15]: 50%
- inhibition at 0.0625 ppm [5, 16]: 70%

SMILES: O=[N+]([O-])c1cc(C(F)(F)F)c(Cl)c([N+](=O)[O-])c1Nc1ncc(C(F)(F)F)cc1Cl [Fluazinam]
- inhibition at 0.015625 ppm ([6]; single compound, 0.015625 ppm): 0%
- inhibition at 0.03125 ppm ([6]; single compound, 0.03125 ppm): 20%
- inhibition at 0.0625 ppm ([6]; single compound, 0.0625 ppm): 70%
- inhibition at 0.00390625 ppm [5, 12]: 0%
- inhibition at 0.0078125 ppm [5, 13]: 0%
- inhibition at 0.015625 ppm [5, 14]: 0%
- inhibition at 0.03125 ppm [5, 15]: 0%
- inhibition at 0.0625 ppm [5, 16]: 20%

SMILES: N#Cc1c[nH]cc1-c1cccc2c1OC(F)(F)O2 [Fludioxonil]
- inhibition at 0.03125 ppm ([4]; Botrytis cinerea, read-out: Activity (%), alone, rate 0.03125 ppm): 0%
- inhibition at 0.0625 ppm ([4]; Botrytis cinerea, read-out: Activity (%), alone, rate 0.0625 ppm): 70%
- Activity (%) ([4]; alone, rate 0.0625 ppm): 50%
- inhibition at 0.25 ppm ([6]; read-out: Activity (%)): 70%
- inhibition at 0.00390625 ppm ([5]; Mycosphaerella arachidis, read-out: Activity (%), single compound, 0.00390625 ppm): 0%
- inhibition at 0.0078125 ppm ([5]; Mycosphaerella arachidis, read-out: Activity (%), single compound, 0.0078125 ppm): 0%
- inhibition at 0.015625 ppm ([5]; Mycosphaerella arachidis, read-out: Activity (%), single compound, 0.015625 ppm): 0%
- inhibition at 0.03125 ppm ([5]; Mycosphaerella arachidis, read-out: Activity (%), single compound, 0.03125 ppm): 0%
- inhibition at 0.0625 ppm ([5]; Mycosphaerella arachidis, read-out: Activity (%), single compound, 0.0625 ppm): 0%
- inhibition at 0.125 ppm ([5]; Mycosphaerella arachidis, read-out: Activity (%), single compound, 0.125 ppm): 0%
- inhibition at 0.25 ppm ([5]; Mycosphaerella arachidis, read-out: Activity (%), single compound, 0.25 ppm): 0%
- inhibition at 0.5 ppm ([5]; Mycosphaerella arachidis, read-out: Activity (%), single compound, 0.5 ppm): 70%
- Activity (%) ([5]; single compound, 0.5 ppm): 50%

SMILES: CCCN(CCOc1c(Cl)cc(Cl)cc1Cl)C(=O)n1ccnc1 [Prochloraz]
- inhibition of growth at 0.015625 ppm ([1]; read-out: Activity): 48%
- inhibition of growth at 0.03125 ppm ([1]; read-out: Activity): 80%

SMILES: CCN(C)/C=N/c1cc(Br)c(OCc2ccnc(Cl)c2)nc1C [Q.111]
- pest or weed control at 200 ppm [7]: ≥ 50%
- pest or weed control at 200 ppm [8]: ≥ 50%
- pest or weed control at 200 ppm [9]: ≥ 50%
- pest or weed control at 200 ppm [10]: ≥ 50%
- melting point: 57 to 59 °C

SMILES: CCN(C)/C=N/c1cc(Br)c(OCc2cccc(C)c2)nc1C [Q.128]
- pest or weed control at 200 ppm [7]: ≥ 50%
- pest or weed control at 200 ppm [8]: ≥ 50%
- pest or weed control at 200 ppm [9]: ≥ 50%
- pest or weed control at 200 ppm [10]: ≥ 50%
- melting point: 60 to 62 °C

SMILES: CCN(C)/C=N/c1cc(Br)c(OCCc2ccc(F)cc2)nc1C [Q.129]
- pest or weed control at 200 ppm [7]: ≥ 50%
- pest or weed control at 200 ppm [8]: ≥ 50%
- pest or weed control at 200 ppm [9]: ≥ 50%
- pest or weed control at 200 ppm [10]: ≥ 50%
- melting point: 46 to 48 °C

SMILES: CCN(C)/C=N/c1cc(Br)c(OC2CCCc3ccc(-c4cccc(F)c4)cc32)nc1C (stereo not shown) [Q.137]
- pest or weed control at 200 ppm [8]: ≥ 50%
- melting point: 43 to 45 °C
